Read-outs that look alike come from different tables or passages of the source. Starred links: 1 amine or outer side, 2 acyl side, 3 side chain; linkers in the order of their positions; H or OH if unused. Positions of bridges follow the written chain, without caps; N, C: chain ends. Non-standard residues stand in square brackets, D forms with d. Residues, ends and D or L forms follow the SMILES beside them. Cysteamide = C(CS[*:3])N[*:1]
Experiments:
[1] = disulfide bond, DMSO/TFA, H2O/DMSO/TFA 75:25:0.1
[2] = target: T1, recombinant human thymidylate synthase (hTS) (Homo sapiens, UniProt P04818); assay: hTS inhibition assay (spectrophotometric, absorbance at 340 nm); assay type: biochemical
T1 construct: made in house
T1 sequence (P04818 whole entry): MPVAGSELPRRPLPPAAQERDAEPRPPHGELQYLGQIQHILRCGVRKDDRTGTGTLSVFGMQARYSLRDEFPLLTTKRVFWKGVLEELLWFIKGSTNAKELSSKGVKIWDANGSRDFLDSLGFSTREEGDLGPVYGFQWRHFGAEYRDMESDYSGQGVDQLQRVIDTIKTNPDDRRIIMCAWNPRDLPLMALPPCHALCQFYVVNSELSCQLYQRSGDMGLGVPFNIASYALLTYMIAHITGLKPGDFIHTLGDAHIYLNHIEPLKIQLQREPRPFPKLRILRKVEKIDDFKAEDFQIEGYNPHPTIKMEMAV
Protocol: hTS was purified as previously reported. The enzyme solution was thawed the day of the experiment and the enzyme concentration was determined by UV−Vis spectroscopy (Varian Cary 100, Agilent, Santa Clara, CA, USA) using ε280 = 89000 M^−1 cm^−1 and Mr = 74 229. The thawed protein solution was kept constantly at 4 °C. In this condition, the enzyme was able to reproduce normal kinetic activity values (KM dUMP = 10−12 μM, KM mTHF = 4−6 μM, kcat = 0.8−0.9 s^−1). The peptide solution was mixed or vortexed in order to help solubilization; the precise concentration was determined through UV−Vis spectroscopy. A stock solution of mTHF was prepared in carbonate buffer. The stock was prepared in the range of 5 to 6 mM. A stock solution of dUMP was prepared in bidistilled water in the range of 10−12 mM. Peptide inhibitors were tested without incubation with hTS in […], at 25 °C. A 1 mL amount of assay buffer consisted of 50 mM TES, pH 7.4, containing 25 mM MgCl2, 6.5 mM HCHO, 1 mM EDTA, 75 mM β-mercaptoethanol (β-ME), 0.120 mM dUMP, and 0.060 mM mTHF. Following the addition of the enzyme (300 nM) and inhibitor mixture, the absorbance was monitored at 340 nm in a UV−Vis spectrophotometer for 3 min. In the control sample, an equal aliquot of enzyme alone was added. hTS activity inhibition percentages (I%) values were measured at 0.100−3000 µM concentration of inhibitor. […] The kinetic inhibition pattern was studied for compound 7 [12]. The inhibition values are expressed as mean ± SEM; n = 3.

[3] = target: T1, recombinant human thymidylate synthase (hTS); assay: as above; assay type: biochemical; remark: listed apart in the source
[4] = tested on: IGROV-1 cells; assay: Cytotoxicity, crystal violet cell growth assay, peptides transfected with SAINT-PhD; assay type: cell-based, human; settings: at 10 and 25 µM, ranking among the 10 cPs, SAINT-PhD delivery
Protocol: The IGROV-1, A2780, and A2780/CP human ovarian cancer cell lines were grown as monolayer in RPMI 1640 medium containing 10% heat-inactivated fetal bovine serum and 50 µg/mL gentamycin sulfate (Euroclone, Devon, UK). Cultures were equilibrated with humidified 5% CO2 in air at 37 °C. The cDDP-resistant variant A2780/CP cell line, derived from the parent A2780 cell line, is about 10-fold resistant to cDDP and was developed by monthly exposure to cDDP, followed by chronic exposure to stepwise increases in cDDP concentration. All studies were performed in Mycoplasma negative cells, as routinely determined with the MycoAlert Mycoplasma detection kit (Lonza, Walkersville, MD, USA).
Treatment with each peptide was performed according to the standard transfection protocol of the SAINT-PhD delivery system (Synvolux Therapeutics, Leiden, Netherlands). Complexes of peptide (µg) with SAINT-PhD (µL) were prepared at appropriate ratios corresponding to the approximate µM concentrations indicated. For each protein sample, complexes were prepared as follows: for the treatment of a 24-well plate, the appropriate amount of each peptide was diluted in HBS, then SAINT-PhD was pipetted into the solution without vortexing; then, the mixture was incubated for 5 min at room temperature, and filled up to 500 µL with serum-free medium. The culture medium was aspirated from the cells, the SAINT-PhD/peptide complex was added to the wells and incubated 4 h (37 °C, 5% CO2). Afterward, complete RPMI was added to reach the appropriate volume for maintaining the cell culture for the duration of the experiments.
Cell growth was determined using a modified crystal violet assay. On selected days, the tissue culture medium was removed, and the cell monolayer fixed with methanol and stained with 0.2% crystal violet solution in 20% methanol for at least 30 min. After being washed several times with distilled water to remove excess dye, the cells were left to dry. The incorporated dye was solubilized in acidified isopropanol (1N HCl: 2-propanol, 1:10). After appropriate dilution, absorbance was determined spectrophotometrically at 540 nm. The extracted dye was proportional to cell biomass. The percentage of cytotoxicity was calculated by comparing the absorbance of cultures exposed to the drug to unexposed (control) cultures.

**Q.** For `CC(C)C[C@@H]1NC(=O)[C@@H](CCC(N)=O)NC(=O)[C@@H](NC(=O)[C@H](CO)NC(=O)[C@@H](N)CC(C)C)CSSC[C@@H](C(=O)N[C@@H](CCCNC(=N)N)C(=O)O)NC(=O)[C@H](Cc2ccc(O)cc2)NC1=O` [Leu-Ser-c[Cys-D-Gln-Leu-Tyr-Cys-]Arg], which ring closure, yield after HPLC ([1]; from H-Leu-Ser-Cys-dGln-Leu-Tyr-Cys-Arg-OH, 17-membered ring, 1.01 mM) is on record?
**A.** Its ring closure, yield after HPLC is 29%.

**Q.** Which ring closure, yield after HPLC ([1]; from H-Leu-Ser-Cys-dGln-Leu-Tyr-Gln-Arg-NHCH2CH2SH, 23-membered ring, 0.94 mM) does the source give for `CC(C)C[C@@H]1NC(=O)[C@@H](CCC(N)=O)NC(=O)[C@@H](NC(=O)[C@H](CO)NC(=O)[C@@H](N)CC(C)C)CSSCCNC(=O)[C@H](CCCNC(=N)N)NC(=O)[C@H](CCC(N)=O)NC(=O)[C@H](Cc2ccc(O)cc2)NC1=O` [Leu-Ser-c[Cys-D-Gln-Leu-Tyr-Gln-Arg-CAM-]] here?
**A.** The ring closure, yield after HPLC was 13%.

**Q.** For `CC(C)C[C@@H]1NC(=O)[C@@H](CCC(N)=O)NC(=O)[C@@H](NC(=O)[C@H](CO)NC(=O)[C@@H](N)CC(C)C)CSSC[C@@H](C(=O)O)NC(=O)[C@H](CCC(N)=O)NC(=O)[C@H](Cc2ccc(O)cc2)NC1=O` [Leu-Ser-c[Cys-D-Gln-Leu-Tyr-Gln-Cys-]], which ring closure, yield after HPLC ([1]; from H-Leu-Ser-Cys-dGln-Leu-Tyr-Gln-Cys-OH, 20-membered ring, 1.04 mM) is on record?
**A.** Its ring closure, yield after HPLC is 18%.

**Q.** For `CC(C)C[C@@H]1NC(=O)[C@H](CCC(N)=O)NC(=O)[C@@H](NC(=O)[C@H](CO)NC(=O)[C@@H](N)CC(C)C)CSSCCNC(=O)[C@H](CCCNC(=N)N)NC(=O)[C@H](CCC(N)=O)NC(=O)[C@H](Cc2ccc(O)cc2)NC1=O` [Leu-Ser-c[Cys-Gln-Leu-Tyr-Gln-Arg-CAM-]], which ring closure, yield after HPLC ([1]; from H-Leu-Ser-Cys-Gln-Leu-Tyr-Gln-Arg-NHCH2CH2SH, 23-membered ring, 0.94 mM) is on record?
**A.** The ring closure, yield after HPLC was 15%.

**Q.** With `CC(C)C[C@@H]1NC(=O)[C@H](CCC(N)=O)NC(=O)[C@H](C)NC(=O)[C@@H](NC(=O)[C@@H](N)CC(C)C)CSSC[C@@H](C(=O)O)NC(=O)[C@H](CCC(N)=O)NC(=O)[C@H](Cc2ccc(O)cc2)NC1=O` [Leu-c[Cys-Ala-Gln-Leu-Tyr-Gln-Cys]] as the compound, how does the ring closure, yield after HPLC ([1]; from H-Leu-Cys-Ala-Gln-Leu-Tyr-Gln-Cys-OH, 23-membered ring, 1.06 mM) read?
**A.** Its ring closure, yield after HPLC is 30%.

**Q.** With `CC(C)C[C@@H]1NC(=O)[C@H](CCC(N)=O)NC(=O)[C@@H]2CCCN2C(=O)[C@@H](NC(=O)[C@@H](N)CC(C)C)CSSC[C@@H](C(=O)N[C@@H](CCC(N)=O)C(=O)N[C@@H](CCCNC(=N)N)C(=O)O)NC1=O` [Leu-c[Cys-Pro-Gln-Leu-Cys-]Gln-Arg] as the compound, how does the ring closure, yield after HPLC ([1]; from H-Leu-Cys-Pro-Gln-Leu-Cys-Gln-Arg-OH, 17-membered ring, 1.04 mM) read?
**A.** Its ring closure, yield after HPLC is 25%.

**Q.** With `CC(C)C[C@@H]1NC(=O)[C@H](CCC(N)=O)NC(=O)[C@@H]2CCCN2C(=O)[C@@H](NC(=O)[C@@H](N)CC(C)C)CSSC[C@@H](C(=O)N[C@@H](CCCNC(=N)N)C(=O)O)NC(=O)[C@H](Cc2ccc(O)cc2)NC1=O` [Leu-c[Cys-Pro-Gln-Leu-Tyr-Cys-]Arg] as the compound, how does the ring closure, yield after HPLC ([1]; from H-Leu-Cys-Pro-Gln-Leu-Tyr-Cys-Arg-OH, 20-membered ring, 1.0 mM) read?
**A.** The ring closure, yield after HPLC was 18%.

**Q.** For `CC(C)C[C@@H]1NC(=O)[C@H](CCC(N)=O)NC(=O)[C@@H]2CCCN2C(=O)[C@@H](NC(=O)[C@@H](N)CC(C)C)CSSCCNC(=O)[C@H](CCCNC(=N)N)NC(=O)[C@H](CCC(N)=O)NC(=O)[C@H](Cc2ccc(O)cc2)NC1=O` [Leu-c[Cys-Pro-Gln-Leu-Tyr-Gln-Arg-CAM]], which ring closure, yield after HPLC ([1]; from H-Leu-Cys-Pro-Gln-Leu-Tyr-Gln-Arg-NHCH2CH2SH, 26-membered ring, 0.93 mM) is on record?
**A.** Its ring closure, yield after HPLC is 10%.

**Q.** Which ring closure, yield after HPLC ([1]; from H-Leu-Cys-Pro-Gln-Leu-Tyr-Gln-Cys-OH, 23-membered ring, 1.03 mM) does the source give for `CC(C)C[C@@H]1NC(=O)[C@H](CCC(N)=O)NC(=O)[C@@H]2CCCN2C(=O)[C@@H](NC(=O)[C@@H](N)CC(C)C)CSSC[C@@H](C(=O)O)NC(=O)[C@H](CCC(N)=O)NC(=O)[C@H](Cc2ccc(O)cc2)NC1=O` [Leu-c[Cys-Pro-Gln-Leu-Tyr-Gln-Cys-]] here?
**A.** Its ring closure, yield after HPLC is 22%.

**Q.** With `CC(C)C[C@@H]1NC(=O)[C@H](CCC(N)=O)NC(=O)[C@@H](NC(=O)[C@H](CO)NC(=O)[C@@H](N)CC(C)C)CSSCCNC(=O)[C@H](CCCNC(=N)N)NC(=O)[C@H](CCC(N)=O)NC(=O)[C@H](Cc2ccc(O)cc2)NC1=O` [Peptide 1, Leu-Ser-c[Cys-Gln-Leu-Tyr-Gln-Arg-CAM]] (H-LSCQLYQR-Cysteamide; disulfide 3-C) as the compound, how does the inhibition at 400 µM ([2]; at 400 µM and r.t. under stirring) read?
**A.** Its inhibition at 400 µM is 25%.

**Q.** What about the IC50 ([3]; room temperature (20–22 °C) under stirring, standard error ±20% of the value) of the same compound?
**A.** The IC50 was 2.12 mM.

**Q.** For `CC(C)C[C@@H]1NC(=O)[C@@H](CCC(N)=O)NC(=O)[C@@H](NC(=O)[C@H](CO)NC(=O)[C@@H](N)CC(C)C)CSSCCNC(=O)[C@H](CCCNC(=N)N)NC(=O)[C@H](CCC(N)=O)NC(=O)[C@H](Cc2ccc(O)cc2)NC1=O` [Peptide 3, Leu-Ser-c[Cys-D-Gln-Leu-Tyr-Gln-Arg-CAM]] (H-LSC[dQ]LYQR-Cysteamide; disulfide 3-C), which “% inhibition of hTS” value ([2]; at 500 µM and r.t.) is on record?
**A.** The value was “inactive”.

**Q.** Which results are given for `CC(C)C[C@@H]1NC(=O)[C@@H](CCC(N)=O)NC(=O)[C@@H](NC(=O)[C@H](CO)NC(=O)[C@@H](N)CC(C)C)CSSC[C@@H](C(=O)O)NC(=O)[C@H](CCC(N)=O)NC(=O)[C@H](Cc2ccc(O)cc2)NC1=O` [Peptide 4, Leu-Ser-c[Cys-D-Gln-Leu-Tyr-Gln-Cys]] (H-LSC[dQ]LYQC-OH; disulfide 3-8)?
**A.** cytotoxicity (in words) [4]: least active; % inhibition of hTS ([2]; at 500 µM and r.t.): inactive

**Q.** Which “% inhibition of hTS” value ([2]; at 500 µM and r.t.) does the source give for `CC(C)C[C@@H]1NC(=O)[C@@H](CCC(N)=O)NC(=O)[C@@H](NC(=O)[C@H](CO)NC(=O)[C@@H](N)CC(C)C)CSSC[C@@H](C(=O)N[C@@H](CCCNC(=N)N)C(=O)O)NC(=O)[C@H](Cc2ccc(O)cc2)NC1=O` [Peptide 5, Leu-Ser-c[Cys-D-Gln-Leu-Tyr-Cys]-Arg] (H-LSC[dQ]LYCR-OH; disulfide 3-7; N-terminus assumed) here?
**A.** The value was “N.I. at 500 µM and r.t. N.I. at 500 µM and 37 °C under stirring”.

**Q.** What about the “% inhibition of hTS” value ([3]; at 500 µM and 37 °C under stirring) of the same compound?
**A.** Its value is “N.I. at 500 µM and r.t. N.I. at 500 µM and 37 °C under stirring”.

**Q.** With `CC(C)C[C@@H]1NC(=O)[C@H](CCC(N)=O)NC(=O)[C@@H]2CCCN2C(=O)[C@@H](NC(=O)[C@@H](N)CC(C)C)CSSC[C@@H](C(=O)N[C@@H](CCCNC(=N)N)C(=O)O)NC(=O)[C@H](Cc2ccc(O)cc2)NC1=O` [Peptide 7, Leu-c[Cys-Pro-Gln-Leu-Tyr-Cys]-Arg] (H-LCPQLYCR-OH; disulfide 2-7) as the compound, how does the “cytotoxicity (in words)” value [4] read?
**A.** The value was “intermediate cytotoxicities”.

**Q.** What about the inhibition at 100 µM ([2]; at 100 µM and r.t. under stirring) of the same compound?
**A.** Its inhibition at 100 µM is 59%.

**Q.** And the inhibition at 500 µM ([2]; at 500 µM and r.t.)?
**A.** The inhibition at 500 µM was 76%.

**Q.** And the Ki ([2]; kinetic inhibition pattern, Figure S1, read-out: apparent KI)?
**A.** Its Ki is 120 to 150 µM.

**Q.** Which ring closure, yield after HPLC ([1]; from H-Cys-Ser-Pro-Gln-Leu-Tyr-Gln-Cys-OH, 26-membered ring, 1.06 mM) does the source give for `CC(C)C[C@@H]1NC(=O)[C@H](CCC(N)=O)NC(=O)[C@@H]2CCCN2C(=O)[C@H](CO)NC(=O)[C@@H](N)CSSC[C@@H](C(=O)O)NC(=O)[C@H](CCC(N)=O)NC(=O)[C@H](Cc2ccc(O)cc2)NC1=O` [c[Cys-Ser-Pro-Gln-Leu-Tyr-Gln-Cys]] here?
**A.** The ring closure, yield after HPLC was 25%.
